From patent publication US10683553B2, “Method for determining sensitivity to simultaneous inhibitor against PARP and Tankyrase” (THE ASAN FOUNDATION, priority 2015, dated 2020)

Experiments:
Type in all cases: cell-based
[1] = system: RKO human colon cancer cell line; test: DNA damage by r-H2AX immunocytochemistry; settings: RKO (p53 normal, LIG4 mutant); 50 μM, 48 hours
Text: In order to analyze the degree of DNA damage of Compound A, which is a novel PARP/Tankyrase simultaneous inhibitor, when the p53 gene is a normal type and the LIG4 gene is a mutant type, the present inventors treated a novel PARP/Tankyrase simultaneous inhibitor, Compound A, and the competitive drug PARP inhibitor, olaparib, in the RKO human colon cancer cell line in which the p53 gene is a normal type and the LIG4 gene is a mutant type, and the DNA damage was confirmed by the immunochemical method as the expression level of r-H2AX. The conditions and methods of the experiment were as follows: RKO human colon cancer cell line in which the p53 gene is a normal type and the LIG4 gene is a mutant type was cultured in RPMI1640 (10% FBS, 1% penicillin/streptomycin) and cultured in a 60 mm plate at 1×10^5 per well for 24 hours at 37° C. […] The r-H2AX antibody was diluted at a ratio of 1:100 in 1% BSA, reacted overnight at 4° C., washed three times for 10 minutes with TBS-T buffer, and the secondary antibody (Alexa Fluor®488 fitc) was diluted at a ratio of 1:100 in 1% BSA, reacted at room temperature for 2 hours, and then washed with TBS-T A buffer three times for 10 minutes, and stained with DAPI to confirm the expression level of r-H2AX under a fluorescence microscope.

[2] = system: HCT8 human colon cancer cell line; test: Western blot of r-H2AX and truncated caspase 3 with overexpressed mutant LIG4; settings: HCT8 overexpressing LIG4 mutant G833A or T1704C
Procedure: The present inventors conducted an experiment in the same manner as Example 9 to analyze the degree of apoptosis and DNA damage of Compound A, which is a novel PARP/Tankyrase simultaneous inhibitor, when the p53 genotype is a mutant type and an LIG4 genotype is a mutant type. The number of cells was measured by trypan blue staining method and the degree of apoptosis was confirmed. The cells were obtained using a centrifuge. Each cell thus obtained was dissolved using an RIPA buffer, and the proteins were extracted using a high-speed centrifuge. 30 μg protein per cell was electrophoresed by western blot method to separate proteins and transferred to PDVF membrane. The r-H2AX, truncated caspase 3, and b-actin antibody were diluted with each 1:2000 ratio in 5% skim milk. Then, the cells were reacted at 4° C. for 12 hours and then washed three times for 15 minutes with TBS-T buffer. The secondary antibody was diluted with each 1:2000 ratio in 5% skim milk and reacted at room temperature for 2 hours. It was washed with TBS-T buffer three times for 15 minutes to induce luminescence of PDVF membrane using ECL buffer solution to develop protein expression on each anti-body using an X-ray film.

[3] = system: HCT116 human colon cancer cell line; test: Trypan blue apoptosis after siRNA knockdown of DNA repair genes; settings: HCT116 p53 normal, LIG4 siRNA knockdown; 25 μM and 50 μM, 48 hours
Text: In order to analyze the degree of apoptosis of Compound A, which is a novel PARP/Tankyrase simultaneous inhibitor, depending on the presence or absence of the p53 gene and the presence or absence of the DNA repair gene, the present inventors reduced gene expression by an ATR, XLF, XRCC4 and LIG4 siRNA knockdown method known as a DNA repair gene in the human colon cancer cell line HCT116 in which the p53 normal gene is present, and then treated with Compound A, which is a novel PARP/Tankyrase simultaneous inhibitor. Then, the number of cells was measured by trypan blue staining assay to confirm the degree of apoptosis. As the experimental conditions and methods, the HCT116 p53 null human colon cancer cell line in which the p53 gene is normal and the HCT116 and p53 gene are deficient is cultured in RPMI1640 (10% FBS, 1% penicillin/streptomycin), and 1×10^5 per well was cultured at 37° C. for 24 hours in a 60 mm plate. ATR, XLF, XRCC4 and LIG4 (SEQ ID NO: 4; ATR siRNA 5′-GAGUUCUCAGAAGUCAACC-3′, SEQ ID NO: 5; XLF siRNA 5′-[…]-3′, SEQ ID NO: 6; XRCC4 siRNA 5′-[…]-3′, SEQ ID NO: 7; LIG4 siRNA 5′-GGGAGUGUCUCAUGUAAUA-3′) were infused into cells by means of Lipofectamin 2000 (Invitrogen), and knocked down at 37° C. for 48 hours. […] After 48 hours of culturing, the number of cells was measured by trypan blue staining and the degree of apoptosis was confirmed.

[4] = system: LoVo human colon cancer cell line; test: Western blot of r-H2AX and cleaved caspase 3 with overexpressed mutant p53 or normal LIG4
Text: In order to analyze the degree of DNA damage and the degree of apoptosis of Compound B, which is a novel PARP/Tankyrase simultaneous inhibitor, according to the expression of a mutant type p53 and a normal type LIG4 when the p53 genotype is a normal type and an LIG4 genotype is a mutant type, the present inventors cultured and treated the LoVo human colon cancer cell line in which the p53 genotype is a normal type and an LIG4 genotype is a mutant type under the same condition as in Example 17.

[5] = LoVo overexpressing LIG4 normal type gene vs control group (empty)
[6] = LoVo overexpressing p53 mutant type gene vs control group (empty)

| Compound | DNA damage: expression level of r-H2AX (immunocytochemistry) [1] | expression amount of truncated caspase 3 (western blot) [2] | expression of r-H2AX (western blot) [2] | degree of apoptosis (trypan blue cell count) [3] | expression amount of cleaved caspase 3 (western blot) [4, 5] | expression of r-H2AX (western blot) [4, 5] | expression amount of cleaved caspase 3 (western blot) [4, 6] | expression of r-H2AX (western blot) [4, 6] |
| --- | --- | --- | --- | --- | --- | --- | --- | --- |
| CCOc1cc(CN(C)C)cc2[nH]c(=O)c3c(c12)NCCC3 [Compound A, 8-[(dimethylamino)methyl]-10-ethoxy-1,2,3,4-tetrahydrobenzo[h][1,6]naphthyridin-5(6H)-one] | expression of r-H2AX was increased | also increased | also increased | apoptosis is significantly increased |  |  |  |  |
| N#Cc1ccc(N2CCN(Cc3ccc4c5c(c(=O)[nH]c4c3)CCCN5)CC2)nc1 [Compound B, 6-{4-[(5-oxo-1,2,3,4,5,6-hexahydrobenzo[h][1,6]naphthyridin-8-yl)methyl]piperazin-1-yl}nicotinonitrile] |  |  |  |  | reduced | reduced | reduced | reduced |
